The values that follow come from patent US6784137B2, “6-aryl-4-aminopicolinates and their use as herbicides” (Dow AgroSciences LLC, priority 2001, dated 2004).

The structures appear in SMILES notation.

The first data set deals with Wheat(var. Merica) (Triticum aestivum). As to the kind of experiment: Postemergence herbicidal activity, selectivity to wheat. Particulars: post-emergence, 336 h, Table 3, rate 62.5 (unit inferred), crop injury, read-out: Post-emergent % control TRZAS. Format: in vivo. The procedure:
Seeds of the desired test plant species were planted in Grace-Sierra MetroMix® 306 planting mixture, which typically has a pH of 6.0 to 6.8 and an organic matter content of about 30 percent, in plastic pots with a surface area of 64 square centimeters. When required to ensure good germination and healthy plants, a fungicide treatment and/or other chemical or physical treatment was applied. The plants were grown for 7-21 days in a greenhouse with an approximate 15 hr photoperiod which was maintained at about 23-29° C. during the day and 22-28° C. during the night. Nutrients and water were added on a regular basis and supplemental lighting was provided with overhead metal halide 1000-Watt lamps as necessary. The plants were employed for testing when they reached the first or second true leaf stage. A weighed amount, determined by the highest rate to be tested, of each test compound was placed in a 20 mL glass vial and was dissolved in 4 mL of a 97:3 v/v (volume/volume) mixture of acetone and dimethyl sulfoxide (DMSO) to obtain concentrated stock solutions. […] The concentrated stock solutions obtained were diluted with an aqueous mixture containing acetone, water, isopropyl alcohol, DMSO, At plus 411 F crop oil concentrate, and Triton X-155 surfactant in a 48.5:39:10:1.5:1.0:0.02 v/v ratio to obtain spray solutions of known concentration. The solutions containing the highest concentration to be tested were prepared by diluting 2 mL aliquots of the stock solution with 13 mL of the mixture and lower concentrations were prepared by serial dilution of the stock solution. Approximately 1.5 mL aliquots of each solution of known concentration were sprayed evenly onto each of the test plant pots using a DeVilbiss atomizer driven by compressed air pressure of […] (140 to 280 kiloPascals) to obtain thorough coverage of each plant. Control plants were sprayed in the same manner with the aqueous mixture. In this test an application rate of 1 ppm results in the application of approximately 1 g/Ha. The treated plants and control plants were placed in a greenhouse as described above and watered by sub-irrigation to prevent wash-off of the test compounds. After 2 weeks the condition of the test plants as compared with that of the untreated plants was determined visually and scored on a scale of 0 to 100 percent where 0 corresponds to no injury and 100 corresponds to complete kill.
Regarding `COC(=O)c1nc(-c2ccc(Cl)cc2F)cc(NC(C)=O)c1Cl` [Compound 52, Methyl 4-acetamido-3-chloro-6-(4-chloro-2-fluorophenyl)pyridine-2-carboxylate], the pest or weed control at 62.5 µg/mL turned out to be 10%.

Take `Cc1ccc(-c2cc(N)c(Cl)c(C(=O)O)n2)cc1` [Compound 136, 4-Amino-3-chloro-6-(4-methylphenyl)pyridine-2-carboxylic acid]: the pest or weed control at 62.5 µg/mL worked out at 0%.

The test system of another data set is Pigweed (redroot) (Amaranthus retroflexus). Kind of data set: Postemergence herbicidal activity, greenhouse spray. Particulars: Amaranthus retroflexus, post-emergence, 336 h; Table 3; rate 62.5 (unit inferred); visual score after 2 weeks; read-out: Post-emergent % control AMARE. The format is in vivo. In short, it runs like this:
(§1)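 Test compounds, serially diluted into an aqueous acetone–isopropanol–DMSO vehicle with crop oil concentrate and Triton X-155, were atomizer-sprayed over plants at the 1–2 true leaf stage. Plants grew 7–21 days beforehand under ~15 h light; sub-irrigation followed treatment, with vehicle-sprayed controls.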
With `COC(=O)c1nc(-c2ccc(Cl)cc2F)cc(NC(C)=O)c1Cl` [Compound 52, Methyl 4-acetamido-3-chloro-6-(4-chloro-2-fluorophenyl)pyridine-2-carboxylate], the pest or weed control at 62.5 µg/mL turned out to be 70%.

For the compound `Cc1ccc(-c2cc(N)c(Cl)c(C(=O)O)n2)cc1` [Compound 136, 4-Amino-3-chloro-6-(4-methylphenyl)pyridine-2-carboxylic acid], the pest or weed control at 62.5 µg/mL was determined as 100%.

The test system of the next data set is Barnyardgrass (Echinochloa crus-galli). The data set is described as above. Format: in vivo. Particulars: Echinochloa crus-galli, post-emergence, 336 h, Table 1; rate 250 ppm; visual score after 2 weeks; read-out: Post-emergent % control ECHCG. In short, it runs like this:
as §1
For the compound `Cc1ccc(-c2cc(N)c(Cl)c(C(=O)O)n2)cc1` [Compound 136, 4-Amino-3-chloro-6-(4-methylphenyl)pyridine-2-carboxylic acid], the pest or weed control at 250 ppm was 70%.

The data set is the same for the next values; noted with them: Echinochloa crus-galli, post-emergence, 336 h, Table 1; rate 500 ppm; visual score after 2 weeks; read-out: Post-emergent % control ECHCG.
For `COC(=O)c1nc(-c2ccc(Cl)cc2F)cc(NC(C)=O)c1Cl` [Compound 52, Methyl 4-acetamido-3-chloro-6-(4-chloro-2-fluorophenyl)pyridine-2-carboxylate], the pest or weed control at 500 ppm turned out to be 90%.

Staying with this data set, now noted: Echinochloa crus-galli, post-emergence, 336 h, Table 2; rate 125 ppm; visual score after 2 weeks; read-out: Post-emergent % control ECHCG.
With `Cc1ccc(-c2cc(N)c(Cl)c(C(=O)O)n2)cc1` [Compound 136, 4-Amino-3-chloro-6-(4-methylphenyl)pyridine-2-carboxylic acid], the pest or weed control at 125 ppm is 70%.

The subject of the next data set is Yellow nutsedge (Cyperus esculentus). The data set is described as above. Format: in vivo. Particulars: Cyperus, post-emergence, 336 h, Table 1; rate 250 ppm; visual score after 2 weeks; read-out: Post-emergent % control CYPES. The essentials: as §1
In the case of `Cc1ccc(-c2cc(N)c(Cl)c(C(=O)O)n2)cc1` [Compound 136, 4-Amino-3-chloro-6-(4-methylphenyl)pyridine-2-carboxylic acid], the pest or weed control at 250 ppm stood at 80%.

Still in this data set, the particulars now being: Cyperus, post-emergence, 336 h, Table 1; rate 500 ppm; visual score after 2 weeks; read-out: Post-emergent % control CYPES.
With `COC(=O)c1nc(-c2ccc(Cl)cc2F)cc(NC(C)=O)c1Cl` [Compound 52, Methyl 4-acetamido-3-chloro-6-(4-chloro-2-fluorophenyl)pyridine-2-carboxylate], the pest or weed control at 500 ppm came out at 40%.

Staying with this data set, now noted: Cyperus, post-emergence, 336 h, Table 2; rate 125 ppm; visual score after 2 weeks; read-out: Post-emergent % control CYPES.
For `Cc1ccc(-c2cc(N)c(Cl)c(C(=O)O)n2)cc1` [Compound 136, 4-Amino-3-chloro-6-(4-methylphenyl)pyridine-2-carboxylic acid], the pest or weed control at 125 ppm was found to be 70%.

For a further data set, the system named is Cocklebur (Xanthium strumarium). Described as above. Format: in vivo. Particulars: Xanthium strumarium, post-emergence, 336 h; Table 1; rate 250 ppm; visual score after 2 weeks; read-out: Post-emergent % control XANST. In short, it runs like this:
as §1
For `Cc1ccc(-c2cc(N)c(Cl)c(C(=O)O)n2)cc1` [Compound 136, 4-Amino-3-chloro-6-(4-methylphenyl)pyridine-2-carboxylic acid], the pest or weed control at 250 ppm is 100%.

The data set is the same for the next values; noted with them: Xanthium strumarium, post-emergence, 336 h; Table 1; rate 500 ppm; visual score after 2 weeks, 0 no injury, 100 complete kill; read-out: Post-emergent % control XANST.
On to `COC(=O)c1nc(-c2ccc(Cl)cc2F)cc(NC(C)=O)c1Cl` [Compound 52, Methyl 4-acetamido-3-chloro-6-(4-chloro-2-fluorophenyl)pyridine-2-carboxylate], for which the pest or weed control at 500 ppm was 100%.

The same data set, now with this note: Xanthium strumarium, post-emergence, 336 h; Table 2; rate 125 ppm; visual score after 2 weeks; read-out: Post-emergent % control XANST.
Turning to `Cc1ccc(-c2cc(N)c(Cl)c(C(=O)O)n2)cc1` [Compound 136, 4-Amino-3-chloro-6-(4-methylphenyl)pyridine-2-carboxylic acid], the pest or weed control at 125 ppm is 100%.

In the next data set the test system is Lambsquarter (Chenopodium album). The description is as above. Format: in vivo. Particulars: Chenopodium album, post-emergence, 336 h; Table 1; rate 250 ppm; visual score after 2 weeks; read-out: Post-emergent % control CHEAL. The essentials:
as §1
With `Cc1ccc(-c2cc(N)c(Cl)c(C(=O)O)n2)cc1` [Compound 136, 4-Amino-3-chloro-6-(4-methylphenyl)pyridine-2-carboxylic acid], the pest or weed control at 250 ppm turned out to be 100%.

Staying with this data set, now noted: Chenopodium album, post-emergence, 336 h; Table 1; rate 500 ppm; visual score after 2 weeks; read-out: Post-emergent % control CHEAL.
For the compound `COC(=O)c1nc(-c2ccc(Cl)cc2F)cc(NC(C)=O)c1Cl` [Compound 52, Methyl 4-acetamido-3-chloro-6-(4-chloro-2-fluorophenyl)pyridine-2-carboxylate], the pest or weed control at 500 ppm was 100%.

The data set is the same for the next values; noted with them: Chenopodium album, post-emergence, 336 h; Table 2; rate 125 ppm; visual score after 2 weeks; read-out: Post-emergent % control CHEAL.
On to `Cc1ccc(-c2cc(N)c(Cl)c(C(=O)O)n2)cc1` [Compound 136, 4-Amino-3-chloro-6-(4-methylphenyl)pyridine-2-carboxylic acid], for which the pest or weed control at 125 ppm turned out to be 100%.

Test system in the next data set: not given
Test: not given
Conditions: not given
Take `COC(=O)c1nc(-c2ccc(Cl)cc2F)cc(NC(C)=O)c1Cl` [Compound 52, Methyl 4-acetamido-3-chloro-6-(4-chloro-2-fluorophenyl)pyridine-2-carboxylate]: the melting point was 134 to 135 °C.

Compound `Cc1ccc(-c2cc(N)c(Cl)c(C(=O)O)n2)cc1` [Compound 136, 4-Amino-3-chloro-6-(4-methylphenyl)pyridine-2-carboxylic acid] displayed a melting point of 166 to 167 °C.

The subject of the next data set is Pigweed (redroot) (Amaranthus retroflexus). As to the kind of experiment: Preemergence herbicidal activity, soil spray. Format: in vivo. Particulars: Amaranthus retroflexus, pre-emergence, 504 h; Table 5; rate 140 ppm; visual score after 3 weeks; read-out: Pre-emergent % control AMARE. In short, it runs like this: (§2)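 Test species were planted first, then the soil of each pot was sprayed with compound solutions of known concentration made in water containing 0.1% Tween 155 from acetone–DMSO stocks. The growth matrix was a 70:30 loam and sand blend with pH near 8.1.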
For `COC(=O)c1nc(-c2ccc(Cl)cc2F)cc(NC(C)=O)c1Cl` [Compound 52, Methyl 4-acetamido-3-chloro-6-(4-chloro-2-fluorophenyl)pyridine-2-carboxylate], the pest or weed control at 140 ppm was determined as 100%.

The same data set, now with this note: Amaranthus retroflexus, pre-emergence, 504 h; Table 5; rate 560 ppm; visual score after 3 weeks; read-out: Pre-emergent % control AMARE.
As for `Cc1ccc(-c2cc(N)c(Cl)c(C(=O)O)n2)cc1` [Compound 136, 4-Amino-3-chloro-6-(4-methylphenyl)pyridine-2-carboxylic acid], the pest or weed control at 560 ppm was determined as 100%.

In the next data set the test system is Giant Foxtail (Setaria faberi). Kind of data set: Preemergence herbicidal activity, soil spray. Format: in vivo. Particulars: Setaria faberi, pre-emergence, 504 h, Table 5; rate 140 ppm; visual score after 3 weeks; read-out: Pre-emergent % control SETFA. The essentials: as §2
As to `COC(=O)c1nc(-c2ccc(Cl)cc2F)cc(NC(C)=O)c1Cl` [Compound 52, Methyl 4-acetamido-3-chloro-6-(4-chloro-2-fluorophenyl)pyridine-2-carboxylate], the pest or weed control at 140 ppm was 95%.

The data set is the same for the next values; noted with them: Setaria faberi, pre-emergence, 504 h, Table 5; rate 560 ppm; visual score after 3 weeks; read-out: Pre-emergent % control SETFA.
Consider `Cc1ccc(-c2cc(N)c(Cl)c(C(=O)O)n2)cc1` [Compound 136, 4-Amino-3-chloro-6-(4-methylphenyl)pyridine-2-carboxylic acid], for which the pest or weed control at 560 ppm worked out at 100%.

Another data set has as its system Crabgrass(large) (Digitaria sanguinalis). Kind of data set: Preemergence herbicidal activity, soil spray. The format is in vivo. Particulars: Digitaria sanguinalis, pre-emergence, 504 h; Table 5; rate 140 ppm; visual score after 3 weeks; read-out: Pre-emergent % control DIGSA. The essentials: as §2
As to `COC(=O)c1nc(-c2ccc(Cl)cc2F)cc(NC(C)=O)c1Cl` [Compound 52, Methyl 4-acetamido-3-chloro-6-(4-chloro-2-fluorophenyl)pyridine-2-carboxylate], the pest or weed control at 140 ppm worked out at 100%.

The same data set, now with this note: Digitaria sanguinalis, pre-emergence, 504 h; Table 5; rate 560 ppm; visual score after 3 weeks; read-out: Pre-emergent % control DIGSA.
As for `Cc1ccc(-c2cc(N)c(Cl)c(C(=O)O)n2)cc1` [Compound 136, 4-Amino-3-chloro-6-(4-methylphenyl)pyridine-2-carboxylic acid], the pest or weed control at 560 ppm came out at 100%.

In the next data set the test system is Lambsquarter (Chenopodium album). Kind of data set: Preemergence herbicidal activity, soil spray. Particulars: Chenopodium album, pre-emergence, 504 h; Table 5; rate 140 ppm; visual score after 3 weeks; read-out: Pre-emergent % control CHEAL. Format: in vivo. The essentials: as §2
As for `COC(=O)c1nc(-c2ccc(Cl)cc2F)cc(NC(C)=O)c1Cl` [Compound 52, Methyl 4-acetamido-3-chloro-6-(4-chloro-2-fluorophenyl)pyridine-2-carboxylate], the pest or weed control at 140 ppm was 100%.

The same data set, now with this note: Chenopodium album, pre-emergence, 504 h; Table 5; rate 560 ppm; visual score after 3 weeks, 100 complete kill or no germination; read-out: Pre-emergent % control CHEAL.
`Cc1ccc(-c2cc(N)c(Cl)c(C(=O)O)n2)cc1` [Compound 136, 4-Amino-3-chloro-6-(4-methylphenyl)pyridine-2-carboxylic acid]: the pest or weed control at 560 ppm is 100%.
